Measurements from PMC5216056 (Nature Communications, 2017).
Where two headings read alike, the source gives them in different places.

What was measured:
hCB2R [1] = target: T1, hCB2R (Homo sapiens, UniProt P34972); experiment: biochemical; type: binding
hCB1R [2] = target: T2, hCB1R (Homo sapiens, UniProt P21554); experiment: biochemical; type: biochemical
T2 construct: host or cells: CHO

hCB1R [3] = target: T2, hCB1R; experiment: cell-based; type: cell-based
Rat recombinant TRPV3 = target: T3, Rat recombinant TRPV3 (Rattus norvegicus, UniProt Q4QYD9); experiment: cell-based; type: cell-based; conditions: for IC50: vs thymol 100μM, read-out: TRPV3 IC50 for antagonism or desensitization; for EC50: read-out: TRPV3 Potency EC50
T3 construct: expressed in transfected cells; host or cells: HEK293 (TRPV3-HEK-293, gift from HB Bradshaw, Indiana University)
T3 sequence (Q4QYD9 1-791): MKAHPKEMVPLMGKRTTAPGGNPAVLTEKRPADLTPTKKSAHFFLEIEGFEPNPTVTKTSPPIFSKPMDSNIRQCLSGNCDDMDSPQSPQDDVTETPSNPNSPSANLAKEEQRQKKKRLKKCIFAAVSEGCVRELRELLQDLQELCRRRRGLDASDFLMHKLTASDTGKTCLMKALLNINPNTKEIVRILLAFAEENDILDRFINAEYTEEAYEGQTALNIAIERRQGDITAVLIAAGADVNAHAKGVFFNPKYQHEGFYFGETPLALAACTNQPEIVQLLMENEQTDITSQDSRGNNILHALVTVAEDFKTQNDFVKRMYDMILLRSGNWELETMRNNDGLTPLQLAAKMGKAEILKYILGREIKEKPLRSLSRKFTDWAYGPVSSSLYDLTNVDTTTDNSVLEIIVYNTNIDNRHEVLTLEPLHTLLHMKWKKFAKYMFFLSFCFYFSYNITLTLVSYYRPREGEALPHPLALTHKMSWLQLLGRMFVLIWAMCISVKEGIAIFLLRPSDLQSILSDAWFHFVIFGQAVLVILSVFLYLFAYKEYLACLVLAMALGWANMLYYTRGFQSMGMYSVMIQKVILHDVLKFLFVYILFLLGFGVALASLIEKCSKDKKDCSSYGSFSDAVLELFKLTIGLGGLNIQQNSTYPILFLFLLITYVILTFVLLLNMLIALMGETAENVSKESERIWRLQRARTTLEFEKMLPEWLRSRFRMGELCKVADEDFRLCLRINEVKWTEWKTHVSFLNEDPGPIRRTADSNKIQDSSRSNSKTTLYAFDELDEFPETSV

A1 (h) = target: T4, A1 (h) (Homo sapiens, UniProt P30542); experiment: CEREP panel; type: binding; conditions: for % inhibition A1 (h): 10 µM
T4 construct: CEREP
T4 sequence (P30542 1-326): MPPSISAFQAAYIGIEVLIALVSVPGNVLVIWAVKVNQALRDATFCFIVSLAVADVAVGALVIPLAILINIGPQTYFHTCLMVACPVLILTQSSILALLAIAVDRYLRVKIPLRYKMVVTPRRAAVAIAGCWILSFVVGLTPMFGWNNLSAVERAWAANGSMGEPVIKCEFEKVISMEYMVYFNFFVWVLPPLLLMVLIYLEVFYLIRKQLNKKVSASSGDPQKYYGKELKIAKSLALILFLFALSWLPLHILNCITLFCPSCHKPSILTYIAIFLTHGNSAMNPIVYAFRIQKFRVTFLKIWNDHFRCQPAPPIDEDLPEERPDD

alpha 2A (h) = target: T5, alpha 2A (h) (Homo sapiens, UniProt P08913); experiment: CEREP panel; type: binding; conditions: for % inhibition alpha 2A (h): 10 µM
T5 construct: CEREP
T5 sequence (P08913 1-465): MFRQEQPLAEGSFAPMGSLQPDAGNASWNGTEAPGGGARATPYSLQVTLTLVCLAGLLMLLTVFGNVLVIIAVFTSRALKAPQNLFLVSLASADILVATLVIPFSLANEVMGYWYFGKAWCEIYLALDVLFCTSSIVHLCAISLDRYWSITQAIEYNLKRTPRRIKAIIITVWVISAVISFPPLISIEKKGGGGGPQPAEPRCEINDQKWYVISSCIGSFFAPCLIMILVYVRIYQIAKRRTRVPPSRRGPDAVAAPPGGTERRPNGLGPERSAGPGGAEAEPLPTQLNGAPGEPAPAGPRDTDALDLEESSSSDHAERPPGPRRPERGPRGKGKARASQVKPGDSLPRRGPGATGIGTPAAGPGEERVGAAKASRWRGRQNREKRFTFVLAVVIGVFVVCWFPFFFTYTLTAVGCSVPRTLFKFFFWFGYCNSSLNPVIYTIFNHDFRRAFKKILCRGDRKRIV

beta 1 (h) = target: T6, beta 1 (h) (Homo sapiens, UniProt P08588); experiment: biochemical; type: binding; conditions: for % inhibition beta 1 (h): 10 µM
T6 construct: CEREP

BZD (central) = type: binding; conditions: 10 µM
CB1 (h) = target: T7, CB1 (h) (Homo sapiens, UniProt P21554); experiment: biochemical; type: binding
T7 construct: CEREP (contract assay)

MT1 (ML1A) (h) = target: T8, MT1 (ML1A) (h) (Homo sapiens, UniProt P48039); experiment: CEREP panel; type: binding; conditions: for inhibition at 10 µM: read-out: % inhibition MT1 (ML1A) (h)
T8 construct: CEREP (contract assay)

Na+ channel (site 2) = type: binding; conditions: 10 µM
hCB2R [4] = target: T1, hCB2R; experiment: cell-based; type: cell-based; parameters: expressed in transfected cells; host or cells: Flp-In-293 (Invitrogen #R750-07), pcDNA5/FRT
[5] = tested on: AEA cellular uptake in U937 cells; experiment: cells; type: cell-based, human; conditions: for AEA reuptake Efficacy (% inhibition) U937 cells: from dose-response
[6] = tested on: AEA cellular uptake in HMC-1 cells; experiment: cells; type: cell-based, human
MT3 (ML2) = target: T9, MT3 (ML2) (Mesocricetus auratus, UniProt A0ABM2YAB8); experiment: CEREP panel; type: binding; conditions: for % inhibition MT3 (ML2): 10 µM
T9 construct: CEREP (contract assay)
T9 sequence (A0ABM2YAB8 1-231): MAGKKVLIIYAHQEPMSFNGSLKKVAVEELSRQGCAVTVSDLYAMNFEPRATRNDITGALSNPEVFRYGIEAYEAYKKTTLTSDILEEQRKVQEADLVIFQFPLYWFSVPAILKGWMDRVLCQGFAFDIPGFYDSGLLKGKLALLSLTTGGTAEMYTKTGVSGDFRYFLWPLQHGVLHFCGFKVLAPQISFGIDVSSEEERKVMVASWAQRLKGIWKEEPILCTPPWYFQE

[7] = tested on: Ca2+ channel (L, diltiazem site); experiment: CEREP panel; type: binding; conditions: 10 µM
kappa (KOP) = target: T10, kappa (KOP) (Rattus norvegicus, UniProt P34975); experiment: CEREP panel; type: binding; conditions: 10 µM
T10 construct: CEREP (contract assay)

[8] = Homo sapiens, U-937, read-out: AEA reuptake IC50 (95% CI) U937 cells
[9] = CHO membranes, Leiden, HU210 and SR144528 from Roche
[10] = read-out: AEA reuptake IC50 (95% CI) U937 cells
[11] = read-out: AEA reuptake IC50 (95% CI) HMC-1 cells, FAAH-deficient cells

T6 sequence (P08588 whole entry): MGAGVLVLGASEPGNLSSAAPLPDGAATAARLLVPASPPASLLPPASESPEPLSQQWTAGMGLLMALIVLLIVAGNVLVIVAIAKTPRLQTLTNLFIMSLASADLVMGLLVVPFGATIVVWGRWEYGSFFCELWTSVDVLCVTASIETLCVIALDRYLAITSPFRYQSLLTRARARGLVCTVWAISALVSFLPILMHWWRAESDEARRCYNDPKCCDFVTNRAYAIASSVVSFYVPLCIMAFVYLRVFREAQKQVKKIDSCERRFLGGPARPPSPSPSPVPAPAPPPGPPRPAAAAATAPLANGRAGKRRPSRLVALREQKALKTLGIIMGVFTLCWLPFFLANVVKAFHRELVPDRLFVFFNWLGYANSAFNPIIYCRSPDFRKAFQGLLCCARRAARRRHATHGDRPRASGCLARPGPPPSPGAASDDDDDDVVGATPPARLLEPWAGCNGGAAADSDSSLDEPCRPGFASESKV
T8 sequence (P48039 whole entry): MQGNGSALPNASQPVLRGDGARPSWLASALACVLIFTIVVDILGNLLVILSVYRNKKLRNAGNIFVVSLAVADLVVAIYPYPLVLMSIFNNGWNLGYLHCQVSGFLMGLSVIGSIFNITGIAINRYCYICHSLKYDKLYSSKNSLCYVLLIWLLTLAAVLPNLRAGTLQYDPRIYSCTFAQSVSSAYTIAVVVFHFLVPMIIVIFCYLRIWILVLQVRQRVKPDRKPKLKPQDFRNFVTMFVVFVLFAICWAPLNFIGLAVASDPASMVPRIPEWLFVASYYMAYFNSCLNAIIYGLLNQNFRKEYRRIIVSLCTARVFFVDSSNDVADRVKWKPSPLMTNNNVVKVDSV
T2 sequence (P21554 whole entry): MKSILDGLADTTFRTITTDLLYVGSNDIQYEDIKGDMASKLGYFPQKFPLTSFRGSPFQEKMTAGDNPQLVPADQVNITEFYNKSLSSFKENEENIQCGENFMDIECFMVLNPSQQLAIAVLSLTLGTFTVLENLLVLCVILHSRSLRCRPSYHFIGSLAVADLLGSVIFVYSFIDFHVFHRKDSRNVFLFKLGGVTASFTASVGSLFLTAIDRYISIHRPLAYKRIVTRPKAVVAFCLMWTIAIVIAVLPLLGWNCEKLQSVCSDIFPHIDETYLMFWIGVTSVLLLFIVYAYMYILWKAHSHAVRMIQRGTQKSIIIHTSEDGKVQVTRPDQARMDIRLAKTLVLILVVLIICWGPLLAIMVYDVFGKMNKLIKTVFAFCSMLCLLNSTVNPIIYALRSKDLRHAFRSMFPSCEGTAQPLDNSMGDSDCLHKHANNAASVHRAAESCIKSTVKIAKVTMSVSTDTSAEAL
T1 sequence (P34972 whole entry): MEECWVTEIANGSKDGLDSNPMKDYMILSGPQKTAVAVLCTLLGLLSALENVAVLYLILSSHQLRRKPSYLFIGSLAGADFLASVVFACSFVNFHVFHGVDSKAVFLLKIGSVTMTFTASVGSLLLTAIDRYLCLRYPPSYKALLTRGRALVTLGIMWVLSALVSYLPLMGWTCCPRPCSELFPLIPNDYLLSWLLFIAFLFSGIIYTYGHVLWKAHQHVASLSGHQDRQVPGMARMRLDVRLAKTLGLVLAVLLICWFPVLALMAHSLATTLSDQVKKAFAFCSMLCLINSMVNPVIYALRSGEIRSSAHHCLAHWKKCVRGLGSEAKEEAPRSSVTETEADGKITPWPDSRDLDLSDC
T10 sequence (P34975 whole entry): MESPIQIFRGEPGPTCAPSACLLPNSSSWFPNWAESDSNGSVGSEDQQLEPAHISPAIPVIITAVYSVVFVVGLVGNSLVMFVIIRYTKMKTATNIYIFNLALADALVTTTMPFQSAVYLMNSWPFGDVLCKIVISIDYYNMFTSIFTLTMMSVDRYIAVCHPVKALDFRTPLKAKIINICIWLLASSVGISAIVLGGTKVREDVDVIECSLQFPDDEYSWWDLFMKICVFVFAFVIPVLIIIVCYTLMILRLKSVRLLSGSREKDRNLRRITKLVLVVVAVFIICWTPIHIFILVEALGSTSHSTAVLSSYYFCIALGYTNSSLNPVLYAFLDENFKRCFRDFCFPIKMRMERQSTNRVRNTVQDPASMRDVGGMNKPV
T7 sequence (P21554 whole entry): as the sequence (P21554 whole entry) above

SMILES	pEC50 ± SEM GTPγS hCB1R (hCB1R [2])	pEC50 ± SEM GIRK hCB1R (hCB1R [3])	TRPV3 Efficacy (% ionomycin 4μM) (Rat recombinant TRPV3) [%]	IC50 (Rat recombinant TRPV3) [µM]	% inhibition A1 (h) (A1 (h)) [%]	% inhibition alpha 2A (h) (alpha 2A (h)) [%]	% inhibition beta 1 (h) (beta 1 (h)) [%]	% inhibition BZD (central) (BZD (central)) [%]	% inhibition Na+ channel (site 2) (Na+ channel (site 2)) [%]	pEC50 ± SEM GIRK hCB2R (hCB2R [4])	IC50 [5, 8] [µM]	AEA reuptake Efficacy (% inhibition) U937 cells [5] [%]	EC50 (Rat recombinant TRPV3) [µM]	pKi ± SEM hCB2R (hCB2R [1]; [9])	IC50 [5, 10] [µM]	IC50 [6, 11] [µM]	% inhibition Ca2+ channel (L, diltiazem site) [7] [%]	% inhibition MT3 (ML2) (MT3 (ML2)) [%]	% inhibition kappa (KOP) (kappa (KOP)) [%]	also measured
CCCC(C)(C)c1ccc2c(c1)OC(C)(C)[C@@H]1CC=C(C)C[C@@H]21 [JWH133]	7.37 ± 0.16	< 5	< 10	80.6	-6	-18	-7	-22	-20	< 5										CB2R Selectivity (binding, human) (hCB2R [1]): 153 fold; pKi ± SEM hCB2R (hCB2R [1]): 7.18 ± 0.34; Emax ± SEM GTPγS hCB1R (hCB1R [2]): 20%; Emax ± SEM GIRK hCB1R (hCB1R [3]): 5 ± 1; % inhibition CB1 (h) (CB1 (h); 10 µM): 6; % inhibition MT1 (ML1A) (h) (MT1 (ML1A) (h); 10 µM): -4%; Emax ± SEM GIRK hCB2R (hCB2R [4]): 31 ± 12
Cc1c(C(=O)NN2CCCCC2)nn(-c2ccc(Cl)cc2Cl)c1-c1ccc(Cl)cc1 [SR141716A]			38.9	3.4 ± 0.4							1.91	57	0.85							IC50 ([6]; Homo sapiens, HMC1, read-out: AEA reuptake IC50 (95% CI) HMC-1 cells, FAAH-deficient cells): 3.5 µM; inhibition at 10 µM (MT1 (ML1A) (h); 10 µM): 62%; inhibition at 10 µM (MT3 (ML2); read-out: % inhibition MT3 (ML2)): 4%
Cc1ccc2c(c1)Cc1c(C(=O)NN3CCCCC3)nn(-c3ccc(Cl)cc3Cl)c1-2 [Gp-1a]	< 5	5.26 ± 0.1	< 10	22.6	25	30	30	-10	40			64		7.66 ± 0.11	1.26	> 5	34	33	99	CB2R Selectivity GIRK (hCB2R [4]; 10^(pEC50 CB2R-pEC50 CB1R)): 5 fold; pEC50 ± SEM GIRK hCB2R (hCB2R [4]; antagonists in presence of CP55940): 5.99 ± 0.08
CCCCCCC(C)(C)c1cc(OC)c([C@@H]2C=C(CO)[C@@H]3C[C@H]2C3(C)C)c(OC)c1 [HU308]			< 10	> 100				-26	30		1.81	62								EC50 (hCB1R [2]): > 10 µM; Emax (hCB1R [2]; read-out: Emax ± SEM GTPγS hCB1R): 17 ± 9%; EC50 (hCB1R [3]): > 10 µM; Emax (hCB1R [3]; AtT20, read-out: Emax ± SEM GIRK hCB1R): 15 ± 10%; IC50 ([6]; Homo sapiens, HMC1, read-out: AEA reuptake IC50 (95% CI) HMC-1 cells): > 5 µM; inhibition at 10 µM (A1 (h); read-out: % inhibition A1 (h)): 5%; inhibition at 10 µM (alpha 2A (h); read-out: % inhibition alpha 2A (h)): -6%; inhibition at 10 µM (beta 1 (h); read-out: % inhibition beta 1 (h)): -11%; inhibition at 10 µM (CB1 (h); read-out: % inhibition CB1 (h)): 18%; inhibition at 10 µM (MT1 (ML1A) (h)): -5%; Emax (hCB2R [4]; AtT20, read-out: Emax ± SEM GIRK hCB2R): 82 ± 6%
CN1CCCC[C@H]1Cn1cc(C(=O)c2cc([N+](=O)[O-])ccc2I)c2ccccc21 [(S)-AM1241]	< 5	< 5	16.2	> 50	14	10	14	-1	87	5.6 ± 0.14		97	9	7.02 ± 0.15	3.7	> 5	90	49	87	Emax ± SEM GIRK hCB1R (hCB1R [3]; normalized to CP55940): 19 ± 3%; Emax ± SEM GIRK hCB2R (hCB2R [4]; normalized to CP55940): 68 ± 13%
